Assay results from patent US5432165A, “Methods for the treatment of infection caused by Hepatitis B virus (HBV)” (priority 1992, dated 1995).
Entries after “also recorded” stand apart in the source; their conditions may differ.

Tests used:
[1] = Oral FIAU in immune-competent patients with chronic hepatitis B: adverse experiences; type: in vivo, human
Description: Consecutively qualifying patients will be used for each dose group and patients will not be assigned to dose based on either disease severity or expected tolerance. Tolerance will be determined with antiemetic therapy given concomitantly as necessary should a patient experience sustained nausea or two or more episodes of vomiting. Compazine, 10 mg p.o. Q6H or 25 mg p.r. Q12H will be used.
The side effects that will be monitored will include gastrointestinal irritation, bone marrow suppression, neurologic, and muscular toxicity.

hepatitis B virus (HBV) = test: Effect of oral FIAU on plasma HBV DNA and HBV DNA polymerase in HIV-infected patients with chronic hepatitis B; type: in vivo, human
Description: Effects on hepatitis were evaluated principally by changes in HBV DNA and viral DNA polymerase. Secondary markers were surface antigen and e antigen. The hepatitis tests were done at Baseline and on Days 3, 7, 14, 21 (7 days post-treatment) and 42 (28 days post-treatment).
Of the 13 "tolerance" patients, e.g., non-hepatitis patients, enrolled, all received the study drug and all are included in the safety analysis. […] They had received a single dose of the study drug, and has, therefore, been included in the safety analysis, but excluded from the efficacy analysis. All of the remaining hepatitis patients had sufficient baseline levels of HBV DNA (>20 pg/ml) and viral DNA polymerase (>300 cpm) in their serum to be useful for determining changes associated with FIAU dosing and all completed the full two weeks of dosing. Therefore, the remaining six hepatitis patients were included in both the safety and efficacy analyses.
The results of clinical investigations conducted at submilligram per kilogram daily doses of FIAU are presented below. […]

[2] = Stability in an acid environment; type: physicochemical; details: such as is found in the human stomach
[3] = 0.1 mg/kg-day, two patients with HBV DNA under 1000 pg/ml
[4] = 0.5 mg/kg-day, four patients with entry HBV DNA <1000 pg/ml

## O=c1[nH]c(=O)n([C@@H]2O[C@H](CO)[C@@H](O)[C@@H]2F)cc1I [FIAU, 1-(2'-deoxy-2'-fluoro-β-D-arabinofuranosyl)-5-iodouracil]
[1]; 0.05 mpk, patient 1C
  days on which mild fatigue was experienced: Day 8
[1]; 0.1 mpk, individual patients (footnotes a-d: 1A, 2A, 3A, 6A)
  days on which mild fatigue was experienced: Days 3, 8, 14, 21, 28, and Week 5; also recorded: Days 7, 14, and 18
[1]; 0.1 mpk, patient 6A
  days on which mild nausea was experienced: Days 3, 7, 14, and 21
[1]; 0.25 mpk, individual patients (footnotes e, g: 4B, 6B)
  days on which mild fatigue was experienced: Days 14, 21, 28, Week 5, and Month 2
[1]; 0.25 mpk, patient 5B
  days on which mild nausea was experienced: Day 3
Hepatitis B virus (HBV); [3]
  average reduction of serum HBV DNA at Day 3 and One Week visits: 60%
  average reduction of serum HBV DNA by end of therapy at two weeks: 93%
  suppression of serum HBV DNA one week post-treatment: 86%
Hepatitis B virus (HBV); 0.1 mg/kg-day, two patients with baseline over 1000 pg/ml
  drop of HBV DNA by the end of therapy: ≤ 25%
Hepatitis B virus (HBV); [4]
  average HBV DNA level, percent of baseline, end of one week of dosing: less than 20%
  average HBV DNA level, percent of baseline, end of two week treatment: less than 10%
  drop of average serum HBV DNA after the first two days of therapy: 61%
  suppression of average HBV DNA one month post-treatment: over 75%
Hepatitis B virus (HBV); 0.5 mg/kg-day, single patient with baseline above 1000 pg/ml
  drop of serum HBV DNA in one week of therapy: 83%
Hepatitis B virus (HBV); 1.0 mg/kg-day
  effect on plasma HBV DNA and viral DNA polymerase levels: rapid, consistent, profound and prolonged effect
  surface antigen and e antigen status: remained positive in all patients to date, with one reported seroreversion of e antigen in Patient 401 approximately 23 weeks post-treatment
Hepatitis B virus (HBV); 1.0 mg/kg-day, five of the six patients
  continuing suppression of HBV DNA polymerase in serum: > 80%
Hepatitis B virus (HBV); 1.0 mg/kg-day, four weeks after therapy
  clearing of HBV DNA from the plasma: two of these became totally negative; also recorded: Two showed a complete clearing of HBV DNA from the plasma
Hepatitis B virus (HBV); 1.0 mg/kg-day, six patients
  average decrease of HBV DNA between Baseline (Day 1) and Day 3: over 70%
Hepatitis B virus (HBV); 1.0 mg/kg-day, two weeks, five of the six patients
  reduction in plasma HBV DNA by the end of therapy: more than 90%
[2]
  stability in an acid environment: stable in an acid environment
